Assay results from PubChem BioAssay (NCI).
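Cultured in 96-well plates, cells were exposed to test compound for 48 hours across five concentrations. Here, GI50 denotes the concentration required for 50% inhibition of growth. TGI is the concentration that stops growth completely.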

Assays:
Experiment in all cases: NCI anticancer screen, dose series, 48 h
A498 renal = test system: A498 renal
SW-620 colon = test system: SW-620 colon
MDA-MB-435 = test system: MDA-MB-435
HS 578T breast = test system: HS 578T breast
A549 NSCLC = test system: A549 NSCLC
MDA-MB-231 breast = test system: MDA-MB-231 breast
EKVX NSCLC = test system: EKVX NSCLC
OVCAR-8 ovarian = test system: OVCAR-8 ovarian
CCRF-CEM leukemia = test system: CCRF-CEM leukemia
SF-539 CNS = test system: SF-539 CNS
PC-3 prostate = test system: PC-3 prostate
HCT-15 colon = test system: HCT-15 colon
SNB-19 CNS = test system: SNB-19 CNS
OVCAR-4 ovarian = test system: OVCAR-4 ovarian
OVCAR-3 ovarian = test system: OVCAR-3 ovarian
M14 melanoma = test system: M14 melanoma
SN12C renal = test system: SN12C renal
DU-145 prostate = test system: DU-145 prostate
SNB-75 CNS = test system: SNB-75 CNS
NCI-H460 lung = test system: NCI-H460 lung
MALME-3M melanoma = test system: MALME-3M melanoma
NCI-H226 lung = test system: NCI-H226 lung
UO-31 renal = test system: UO-31 renal
RXF 393 renal = test system: RXF 393 renal
NCI-H522 lung = test system: NCI-H522 lung
TK-10 renal = test system: TK-10 renal
OVCAR-5 ovarian = test system: OVCAR-5 ovarian
HOP-92 NSCLC = test system: HOP-92 NSCLC
IGROV1 ovarian = test system: IGROV1 ovarian
NCI-H23 lung = test system: NCI-H23 lung
HOP-62 NSCLC = test system: HOP-62 NSCLC
COLO 205 colon = test system: COLO 205 colon
SF-295 CNS = test system: SF-295 CNS
UACC-62 melanoma = test system: UACC-62 melanoma
MOLT-4 leukemia = test system: MOLT-4 leukemia
MCF7 breast = test system: MCF7 breast
NCI/ADR-RES ovarian = test system: NCI/ADR-RES ovarian
HCC-2998 colon = test system: HCC-2998 colon
SK-OV-3 ovarian = test system: SK-OV-3 ovarian
SK-MEL-5 melanoma = test system: SK-MEL-5 melanoma
HT29 colon = test system: HT29 colon
T-47D breast = test system: T-47D breast
ACHN renal = test system: ACHN renal
SR leukemia = test system: SR leukemia
CAKI-1 renal = test system: CAKI-1 renal
SF-268 CNS = test system: SF-268 CNS
HL-60(TB) leukemia = test system: HL-60(TB) leukemia
SK-MEL-2 melanoma = test system: SK-MEL-2 melanoma
KM12 colon = test system: KM12 colon
K-562 leukemia = test system: K-562 leukemia
SK-MEL-28 melanoma = test system: SK-MEL-28 melanoma
UACC-257 melanoma = test system: UACC-257 melanoma
BT-549 breast = test system: BT-549 breast
U251 CNS = test system: U251 CNS
786-0 renal = test system: 786-0 renal
RPMI-8226 leukemia = test system: RPMI-8226 leukemia
HCT-116 colon = test system: HCT-116 colon
LOX IMVI melanoma = test system: LOX IMVI melanoma

## NC(=O)c1ncn2c1CNC(=O)C2
A498 renal
  TGI: > 100 µM
SW-620 colon
  TGI: > 100 µM
MDA-MB-435
  TGI: > 100 µM
HS 578T breast
  TGI: > 100 µM
A549 NSCLC
  TGI: > 100 µM
MDA-MB-231 breast
  TGI: > 100 µM
EKVX NSCLC
  TGI: > 100 µM
OVCAR-8 ovarian
  TGI: > 100 µM
CCRF-CEM leukemia
  TGI: > 100 µM
SF-539 CNS
  TGI: > 100 µM
PC-3 prostate
  TGI: > 100 µM
HCT-15 colon
  TGI: > 100 µM
SNB-19 CNS
  TGI: > 100 µM
OVCAR-4 ovarian
  TGI: > 100 µM
OVCAR-3 ovarian
  TGI: > 100 µM
M14 melanoma
  TGI: > 100 µM
SN12C renal
  TGI: > 100 µM
DU-145 prostate
  TGI: > 100 µM
SNB-75 CNS
  TGI: > 100 µM
NCI-H460 lung
  TGI: > 100 µM
MALME-3M melanoma
  TGI: > 100 µM
NCI-H226 lung
  TGI: > 100 µM
UO-31 renal
  TGI: > 100 µM
RXF 393 renal
  TGI: > 100 µM
NCI-H522 lung
  TGI: > 100 µM
TK-10 renal
  TGI: > 100 µM
OVCAR-5 ovarian
  TGI: > 100 µM
HOP-92 NSCLC
  TGI: > 100 µM
IGROV1 ovarian
  TGI: > 100 µM
NCI-H23 lung
  TGI: > 100 µM
HOP-62 NSCLC
  TGI: > 100 µM
COLO 205 colon
  TGI: > 100 µM
SF-295 CNS
  TGI: > 100 µM
UACC-62 melanoma
  TGI: > 100 µM
MOLT-4 leukemia
  TGI: > 100 µM
MCF7 breast
  TGI: > 100 µM
NCI/ADR-RES ovarian
  TGI: > 100 µM
HCC-2998 colon
  TGI: > 100 µM
SK-OV-3 ovarian
  TGI: > 100 µM
SK-MEL-5 melanoma
  TGI: > 100 µM
HT29 colon
  TGI: > 100 µM
T-47D breast
  TGI: > 100 µM
ACHN renal
  TGI: > 100 µM
SR leukemia
  TGI: > 100 µM
CAKI-1 renal
  TGI: > 100 µM
SF-268 CNS
  TGI: > 100 µM
HL-60(TB) leukemia
  TGI: > 100 µM
SK-MEL-2 melanoma
  TGI: > 100 µM
KM12 colon
  TGI: > 100 µM
K-562 leukemia
  TGI: > 100 µM
SK-MEL-28 melanoma
  TGI: > 100 µM
UACC-257 melanoma
  TGI: > 100 µM
BT-549 breast
  TGI: > 100 µM
U251 CNS
  TGI: > 100 µM

## CCC(=O)O[C@@H]([C@H](C)[C@H]1OC(CC)=C(C)C(=O)[C@@H]1C)[C@@H](C)C(=O)CC
A498 renal
  GI50: 88.9 µM
  TGI: > 100 µM
SW-620 colon
  GI50: > 100 µM
  TGI: > 100 µM
MDA-MB-435
  GI50: > 100 µM
  TGI: > 100 µM
HS 578T breast
  GI50: 96.8 µM
  TGI: > 100 µM
A549 NSCLC
  GI50: > 100 µM
  TGI: > 100 µM
MDA-MB-231 breast
  GI50: > 100 µM
  TGI: > 100 µM
EKVX NSCLC
  GI50: > 100 µM
  TGI: > 100 µM
786-0 renal
  GI50: > 100 µM
  TGI: > 100 µM
OVCAR-8 ovarian
  GI50: > 100 µM
  TGI: > 100 µM
CCRF-CEM leukemia
  GI50: > 100 µM
  TGI: > 100 µM
SF-539 CNS
  GI50: > 100 µM
  TGI: > 100 µM
PC-3 prostate
  GI50: 59.6 µM
  TGI: > 100 µM
HCT-15 colon
  GI50: > 100 µM
  TGI: > 100 µM
SNB-19 CNS
  GI50: > 100 µM
  TGI: > 100 µM
OVCAR-4 ovarian
  GI50: 40.8 µM
  TGI: > 100 µM
OVCAR-3 ovarian
  GI50: 0.0316 µM
  TGI: 0.751 µM
M14 melanoma
  GI50: > 100 µM
  TGI: > 100 µM
SN12C renal
  GI50: > 100 µM
  TGI: > 100 µM
RPMI-8226 leukemia
  GI50: 66.8 µM
  TGI: > 100 µM
DU-145 prostate
  GI50: > 100 µM
  TGI: > 100 µM
SNB-75 CNS
  GI50: > 100 µM
  TGI: > 100 µM
NCI-H460 lung
  GI50: 78.7 µM
  TGI: > 100 µM
MALME-3M melanoma
  GI50: > 100 µM
  TGI: > 100 µM
NCI-H226 lung
  GI50: > 100 µM
  TGI: > 100 µM
UO-31 renal
  GI50: > 100 µM
  TGI: > 100 µM
RXF 393 renal
  GI50: > 100 µM
  TGI: > 100 µM
TK-10 renal
  GI50: > 100 µM
  TGI: > 100 µM
OVCAR-5 ovarian
  GI50: 32.7 µM
  TGI: > 100 µM
HOP-92 NSCLC
  GI50: > 100 µM
  TGI: > 100 µM
IGROV1 ovarian
  GI50: 19.9 µM
  TGI: > 100 µM
NCI-H23 lung
  GI50: 37.8 µM
  TGI: > 100 µM
HOP-62 NSCLC
  GI50: > 100 µM
  TGI: > 100 µM
COLO 205 colon
  GI50: 68.6 µM
  TGI: > 100 µM
SF-295 CNS
  GI50: > 100 µM
  TGI: > 100 µM
UACC-62 melanoma
  GI50: 60.8 µM
  TGI: > 100 µM
MOLT-4 leukemia
  GI50: 60 µM
  TGI: > 100 µM
MCF7 breast
  GI50: > 100 µM
  TGI: > 100 µM
NCI/ADR-RES ovarian
  GI50: 31.7 µM
  TGI: > 100 µM
HCC-2998 colon
  GI50: 0.183 µM
  TGI: 47 µM
SK-OV-3 ovarian
  GI50: > 100 µM
  TGI: > 100 µM
HCT-116 colon
  GI50: 55.6 µM
  TGI: > 100 µM
SK-MEL-5 melanoma
  GI50: 53.6 µM
  TGI: > 100 µM
HT29 colon
  GI50: 53.6 µM
  TGI: > 100 µM
T-47D breast
  GI50: 23.6 µM
  TGI: > 100 µM
ACHN renal
  GI50: > 100 µM
  TGI: > 100 µM
LOX IMVI melanoma
  GI50: > 100 µM
  TGI: > 100 µM
SR leukemia
  GI50: 92.4 µM
  TGI: > 100 µM
SF-268 CNS
  GI50: > 100 µM
  TGI: > 100 µM
HL-60(TB) leukemia
  GI50: 37.4 µM
  TGI: > 100 µM
SK-MEL-2 melanoma
  GI50: > 100 µM
  TGI: > 100 µM
KM12 colon
  GI50: 60.1 µM
  TGI: > 100 µM
K-562 leukemia
  GI50: 61.6 µM
  TGI: > 100 µM
SK-MEL-28 melanoma
  GI50: > 100 µM
  TGI: > 100 µM
UACC-257 melanoma
  GI50: > 100 µM
  TGI: > 100 µM
BT-549 breast
  GI50: 90.2 µM
  TGI: > 100 µM
U251 CNS
  GI50: > 100 µM
  TGI: > 100 µM
